Measured values published in ChEMBL document CHEMBL5724914, “Linking interpersonal differences in gut microbiota composition and drug biotransformation activity” (2024).

Assay: (§1) The drug is tested on Z-030 corresponding to mouse gut metagenome with ENA study accession number: PRJEB37062 and ENA sample accession number: ERS12561829 for biotransformation under anaerobic condition. The drug concentrations were measured over 9 timepoints collected between 0 and 24 hours of incubation by liquid-chromatography-coupled mass spectrometry (LC–MS)
Settings: 2 µM
Note: call rule not given here.

Compound | Bacterial Biotransformation
COc1cc(C(=O)NCc2ccc(OCCN(C)C)cc2)cc(OC)c1OC [TRIMETHOBENZAMIDE] | Compound NOT metabolized
COc1ccc(C(CN(C)C)C2(O)CCCCC2)cc1 (stereo not given) [VENLAFAXINE] | Compound NOT metabolized

Assay: as §1, with “Z-026” for “Z-030”, “to” for “to mouse gut”, “ERS12561825” for “ERS12561829”
Settings: 2 µM

Compound | Bacterial Biotransformation
COc1cc(C(=O)NCc2ccc(OCCN(C)C)cc2)cc(OC)c1OC [TRIMETHOBENZAMIDE] | Compound NOT metabolized
COc1ccc(C(CN(C)C)C2(O)CCCCC2)cc1 (stereo not given) [VENLAFAXINE] | Compound NOT metabolized

Assay: as §1, with “Z-020” for “Z-030”, “rabbit” for “mouse”, “ERS12561819” for “ERS12561829”
Settings: 2 µM

Compound | Bacterial Biotransformation
COc1cc(C(=O)NCc2ccc(OCCN(C)C)cc2)cc(OC)c1OC [TRIMETHOBENZAMIDE] | Compound NOT metabolized
COc1ccc(C(CN(C)C)C2(O)CCCCC2)cc1 (stereo not given) [VENLAFAXINE] | Compound NOT metabolized

Assay: as §1, with “Z-008” for “Z-030”, “to” for “to mouse gut”, “ERS12561808” for “ERS12561829”
Settings: 2 µM

Compound | Bacterial Biotransformation
COc1cc(C(=O)NCc2ccc(OCCN(C)C)cc2)cc(OC)c1OC [TRIMETHOBENZAMIDE] | Compound NOT metabolized
COc1ccc(C(CN(C)C)C2(O)CCCCC2)cc1 (stereo not given) [VENLAFAXINE] | Compound NOT metabolized

Assay: as §1, with “Z-003” for “Z-030”, “pig” for “mouse”, “ERS12561803” for “ERS12561829”
Settings: 2 µM

Compound | Bacterial Biotransformation
COc1cc(C(=O)NCc2ccc(OCCN(C)C)cc2)cc(OC)c1OC [TRIMETHOBENZAMIDE] | Compound NOT metabolized
COc1ccc(C(CN(C)C)C2(O)CCCCC2)cc1 (stereo not given) [VENLAFAXINE] | Compound NOT metabolized

Assay: as §1, with “WLS-310” for “Z-030”, “human” for “mouse”, “ERS12561785” for “ERS12561829”
Settings: 2 µM

Compound | Bacterial Biotransformation
COc1cc(C(=O)NCc2ccc(OCCN(C)C)cc2)cc(OC)c1OC [TRIMETHOBENZAMIDE] | Compound NOT metabolized
COc1ccc(C(CN(C)C)C2(O)CCCCC2)cc1 (stereo not given) [VENLAFAXINE] | Compound metabolized

Assay: as §1, with “WLS-220” for “Z-030”, “human” for “mouse”, “ERS12561769” for “ERS12561829”
Settings: 2 µM

Compound | Bacterial Biotransformation
COc1cc(C(=O)NCc2ccc(OCCN(C)C)cc2)cc(OC)c1OC [TRIMETHOBENZAMIDE] | Compound NOT metabolized
COc1ccc(C(CN(C)C)C2(O)CCCCC2)cc1 (stereo not given) [VENLAFAXINE] | Compound NOT metabolized

Assay: as §1, with “WLS-077” for “Z-030”, “human” for “mouse”, “ERS12561750” for “ERS12561829”
Settings: 2 µM

Compound | Bacterial Biotransformation
COc1cc(C(=O)NCc2ccc(OCCN(C)C)cc2)cc(OC)c1OC [TRIMETHOBENZAMIDE] | Compound NOT metabolized
COc1ccc(C(CN(C)C)C2(O)CCCCC2)cc1 (stereo not given) [VENLAFAXINE] | Compound NOT metabolized

Assay: as §1, with “WLS-007” for “Z-030”, “human” for “mouse”, “ERS12561742” for “ERS12561829”
Settings: 2 µM

Compound | Bacterial Biotransformation
COc1cc(C(=O)NCc2ccc(OCCN(C)C)cc2)cc(OC)c1OC [TRIMETHOBENZAMIDE] | Compound NOT metabolized
COc1ccc(C(CN(C)C)C2(O)CCCCC2)cc1 (stereo not given) [VENLAFAXINE] | Compound NOT metabolized

Settings: human gut metagenome, 24 h, 2 µM

Compound | Bacterial Biotransformation
COc1cc(C(=O)NCc2ccc(OCCN(C)C)cc2)cc(OC)c1OC [TRIMETHOBENZAMIDE] | Compound NOT metabolized
COc1ccc(C(CN(C)C)C2(O)CCCCC2)cc1 (stereo not given) [VENLAFAXINE] | Compound NOT metabolized

Settings: human gut metagenome, 24 h, 2 µM
Remark: another data set of the same source

Compound | Bacterial Biotransformation
COc1cc(C(=O)NCc2ccc(OCCN(C)C)cc2)cc(OC)c1OC [TRIMETHOBENZAMIDE] | Compound NOT metabolized
COc1ccc(C(CN(C)C)C2(O)CCCCC2)cc1 (stereo not given) [VENLAFAXINE] | Compound NOT metabolized

Settings: human gut metagenome, 24 h, 2 µM
Remark: another data set of the same source

Compound | Bacterial Biotransformation
COc1cc(C(=O)NCc2ccc(OCCN(C)C)cc2)cc(OC)c1OC [TRIMETHOBENZAMIDE] | Compound NOT metabolized
COc1ccc(C(CN(C)C)C2(O)CCCCC2)cc1 (stereo not given) [VENLAFAXINE] | Compound NOT metabolized

Settings: human gut metagenome, 24 h, 2 µM
Remark: another data set of the same source

Compound | Bacterial Biotransformation
COc1cc(C(=O)NCc2ccc(OCCN(C)C)cc2)cc(OC)c1OC [TRIMETHOBENZAMIDE] | Compound NOT metabolized
COc1ccc(C(CN(C)C)C2(O)CCCCC2)cc1 (stereo not given) [VENLAFAXINE] | Compound NOT metabolized

Settings: human gut metagenome, 24 h, 2 µM
Remark: another data set of the same source

Compound | Bacterial Biotransformation
COc1cc(C(=O)NCc2ccc(OCCN(C)C)cc2)cc(OC)c1OC [TRIMETHOBENZAMIDE] | Compound NOT metabolized
COc1ccc(C(CN(C)C)C2(O)CCCCC2)cc1 (stereo not given) [VENLAFAXINE] | Compound NOT metabolized

Settings: human gut metagenome, 24 h, 2 µM
Remark: another data set of the same source

Compound | Bacterial Biotransformation
COc1cc(C(=O)NCc2ccc(OCCN(C)C)cc2)cc(OC)c1OC [TRIMETHOBENZAMIDE] | Compound NOT metabolized
COc1ccc(C(CN(C)C)C2(O)CCCCC2)cc1 (stereo not given) [VENLAFAXINE] | Compound NOT metabolized

Settings: human gut metagenome, 24 h, 2 µM
Remark: another data set of the same source

Compound | Bacterial Biotransformation
COc1cc(C(=O)NCc2ccc(OCCN(C)C)cc2)cc(OC)c1OC [TRIMETHOBENZAMIDE] | Compound NOT metabolized
COc1ccc(C(CN(C)C)C2(O)CCCCC2)cc1 (stereo not given) [VENLAFAXINE] | Compound metabolized

Settings: human gut metagenome, 24 h, 2 µM
Remark: another data set of the same source

Compound | Bacterial Biotransformation
COc1cc(C(=O)NCc2ccc(OCCN(C)C)cc2)cc(OC)c1OC [TRIMETHOBENZAMIDE] | Compound NOT metabolized
COc1ccc(C(CN(C)C)C2(O)CCCCC2)cc1 (stereo not given) [VENLAFAXINE] | Compound NOT metabolized

Settings: human gut metagenome, 24 h, 2 µM
Remark: another data set of the same source

Compound | Bacterial Biotransformation
COc1cc(C(=O)NCc2ccc(OCCN(C)C)cc2)cc(OC)c1OC [TRIMETHOBENZAMIDE] | Compound NOT metabolized
COc1ccc(C(CN(C)C)C2(O)CCCCC2)cc1 (stereo not given) [VENLAFAXINE] | Compound NOT metabolized

Settings: human gut metagenome, 24 h, 2 µM
Remark: another data set of the same source

Compound | Bacterial Biotransformation
COc1cc(C(=O)NCc2ccc(OCCN(C)C)cc2)cc(OC)c1OC [TRIMETHOBENZAMIDE] | Compound NOT metabolized
COc1ccc(C(CN(C)C)C2(O)CCCCC2)cc1 (stereo not given) [VENLAFAXINE] | Compound metabolized

Settings: human gut metagenome, 24 h, 2 µM
Remark: another data set of the same source

Compound | Bacterial Biotransformation
COc1cc(C(=O)NCc2ccc(OCCN(C)C)cc2)cc(OC)c1OC [TRIMETHOBENZAMIDE] | Compound NOT metabolized
COc1ccc(C(CN(C)C)C2(O)CCCCC2)cc1 (stereo not given) [VENLAFAXINE] | Compound NOT metabolized
